Laboratory results: patent US20060223073A1, “Methods of using a DNase I-like enzyme” (priority 2005, published 2006)

Target: bovine pancreatic DNase I (Bos taurus, UniProt P00639)
Conditions: for reduction of enzyme activity induced by the addition of salt: 100 mM sodium chloride added to reaction with 40% (v/v) alcohol (FIG. 2); for DNase I activity, % of Standard conditions: alcohol at 40% (v/v) in the Standard reaction, without sodium chloride (FIG. 2)
Experimental: The enzymatic hydrolysis of calf thymus genomic DNA was assayed using a method modified from that described by Desai and Shankar (Eur. J. Biochem., 2000; 267: 5123-5135). The standard reaction mixture was 0.1 mL volume, containing 30 μg of sonicated native calf thymus genomic DNA (Sigma, St. Louis Mo., #D-3664), in a buffer solution composed of 100 mM Tris HCl(pH 8.0)/10 mM MgSO4/1 mM CaCl2, with appropriately diluted DNase I (usually 0.02-1.0 Enzyme Units, as defined below). The reaction was initiated by the addition of enzyme, with incubation at room temperature for a defined period of time (usually 10-20 minutes), after which the reaction was terminated by rapid sequential addition of 0.1 mL of 1 mg/mL Bovine Serum Albumin (Sigma, #A3803) and 1.0 mL of ice cold 2% (v/v) Perchloric Acid. The terminated reaction mixture was vortex mixed, then chilled on ice for 20-30 minutes, follwed by centrifugation at 16,000×g for 10 minutes at 4 degrees centrigrade. The clarified supernatant contains acid-soluble oligonucleotides liberated by the action of DNase I-like activity, at concentrations determined using absorbance measurements determined in a 1 cm pathlength cell in the Agilent 8453 spectrophotometer (Agilent Technologies, Wilmington Del.). A molar extinction coefficient of 10,000 M^−1cm^−1 was employed for oligonucleotide concentration estimation in the acidic solution. Unit activity under these assay conditions is defined as umol of acid-soluble oligonucleotides generated per minute at 25 degrees centigrade. In the experiments shown in the examples that follow, bovine pancreatic DNase I is employed to illustrate the effects of various manipulations on the activity of this enzyme. Typically, the reaction employs approximately 0.1 enzyme units, as defined by the Kunitz assay, as discussed above (see Kunitz. J. Gen. Physiol. 1950; 33:349-362).
Bovine pancreatic DNase I (Fermentas, #EN0523) was assayed for gDNA hydrolytic activity, as described above, using the Standard reaction conditions, but modified by the inclusion of various quantities of iso-propanol (i-propanol, 2-propanol), with or without the further inclusion of sodium chloride at 100 mM.

Sequence of bovine pancreatic DNase I (P00639 23-282): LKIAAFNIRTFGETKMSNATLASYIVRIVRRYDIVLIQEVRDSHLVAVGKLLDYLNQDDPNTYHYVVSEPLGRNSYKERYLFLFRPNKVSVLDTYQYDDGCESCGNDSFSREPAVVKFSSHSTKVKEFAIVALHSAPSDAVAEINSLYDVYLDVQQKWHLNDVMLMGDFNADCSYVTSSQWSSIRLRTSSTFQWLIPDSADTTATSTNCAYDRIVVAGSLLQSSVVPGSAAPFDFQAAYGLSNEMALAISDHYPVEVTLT

DNase I activity, % of Standard conditions	DNase I activity, % of Standard reaction conditions (alcohol at 40% (v/v) plus 100 mM sodium chloride (FIG. 2))	DNase I activity, % of the Standard activity level (20% i-propanol added to solution containing 100 mM sodium chloride (FIG. 1)) [%]	DNase I activity relative to standard conditions (20% i-propanol, no sodium chloride, room temperature (FIG. 1))	DNase I enzyme activity observed (high salt (100 mM sodium chloride) and high alcohol content (FIG. 1))	DNase I activity, % of the standard condition (higher concentrations of i-propanol (above 20%, up to and above 80%), no sodium chloride (FIG. 1))	Compound	reduction of enzyme activity induced by the addition of salt
40%	–	–	–	–	–	CCO [Ethanol]	three-fold reduction
about 10%	less than 5%	–	–	–	–	n-propanol	–
40%	–	101	more than doubling the activity	greater than 50%	about 50%	CC(C)O [i-propanol, iso-propanol]	least prevented the inhibition of the enzyme by salt
